What was measured:
[1] = system: HCT116 colon carcinoma cells; experiment: HCT116 colon carcinoma cell growth inhibition (WST-1, 72 hr); assay type: cell-based, human; conditions: Homo sapiens, HCT-116, 72 hr exposure
Description: HCT116 Colon Carcinoma Cell Growth Inhibition
HCT116 colon carcinoma cells were grown monolayer culture in RPMI 1640 medium supplemented with 10% fetal bovine serum and 1% penicillin-streptomycin (GibcoBRL, Grand Island, N.Y.). HCT116 cells in exponential growth phase were exposed to various concentrations of the test compounds at 37° C. for 72 hr in 5% carbon dioxide/air. After exposure to the agent, the cells were washed with 0.9% phosphate buffered saline. Growth inhibition was determined using WST-1 cell proliferation reagent as described above. The results are expressed as the growth fraction of treated cells compared with control cultures. Representative compounds of the present invention were tested for efficacy against the human colon HCT116 tumor cells.

[2] = system: MURINE COLON ADENOCARCINOMA-38; experiment: Early stage murine colon adenocarcinoma-38 (Table II); assay type: in vivo; conditions: BDF1 male mice
Excerpt: Conventional Murine Tumor and Human Tumor Xenouraft Assays
Inhibition of tumors transplanted into mice is an accepted procedure for studying the efficacy of antitumor agents (Corbett, et al., In vivo Methods for Screening and Preclinical Testing; Use of rodent solid tumors for drug discovery., In: Anticancer Drug Development Guide: Preclinical Screening, Clinical Trials, and Approval, B. Teicher (ed), Humana Press Inc., Totowa, N.J., Chapter 5, pages 75–99 (1997); (Corbett, et al., Int., J. Parmacog., 33, Supplement, 102–122 (1995)). Murine tumors or human xenographs were implanted essentially as described by Corbett in In vivo Methods for Screening and Preclimical Testing; Use of rodent solid tumors for drug discovery. Briefly, the murine tumor or human xenograph was implanted subcutaneously using either 12-gauge trocar implants or counted number of cells. The location for the trocar insertion is midway between the axillary and inguinal region along the side of the mouse. The trocar is slipped approximately ¾ of an inch subcutaneously up toward the axilla before discharging the tumor fragment, and pinching the skin as the trocar is removed., Alternatively, human tumor cells prepared from a […] of donor tumors (5×10^6 cells) were implanted subcutaneously in a hind-leg of a male or female nude mouse (Charles River). Either a test compound in vehicle or vehicle alone was administered by intravenous bolus injection (iv), intraperitoneal injection (ip), or oral gavage (po). Each treatment group, as well as a group of untreated control animals, consisted of five animals per group in each experiment. Subcutaneous tumor response was monitored by tumor volume measurement performed twice each week over the course of the experiment (60–120 days). Body weights were taken as a general measure of toxicity. The subcutaneous tumor data were analyzed by determining the median tumor weight for each treatment group over the course of the experiment and calculating the tumor growth delay as the difference in days for the treatment versus the control tumors to reach a volume of either 500 or 1000 mm^3.
The compound of Example 110 was tested against a variety of murine and human tumors substantially as described supra. The parameters measured in each experiment are summarized in the following paragraphs. • Tumor Weight(mg)=(a×b^2)/2 where a=tumor length (mm) and b=tumor width (mm). • Tumor Growth Delay=T−C where T is the median time (days) required for the treatment group tumors to reach a predetermined size, and C is the median time (days) for the control group tumors to reach the same size. Tumor-free survivors are excluded from this calculation, and are tabulated separately (Tumor Free).
[formula] • where Tumor Growth Delay is as previously defined and Td is tumor volume doubling time (days), estimated from the best fit straight line from a log-linear growth plot of the control group of tumors in exponential growth (100–800 mg range) • % T/C mass—The treatment and control groups are measured when the control group tumors reach approximately 700 to 1200 mg in size (median group). The median tumor weight of each group is determined (including zeros). The T/C value in percent is an indication of antitumor effectiveness. A T/C≦42% is considered significant antitumor activity. A T/C<10% is considered to indicate highly significant antitumor activity. • Body Weight Loss Nadir—A body weight loss nadir (mean of group) of greater than 20% or drug deaths greater than 20% are considered to indicate an excessively toxic dosage in single course trials. • Activity Rating—the Activity Rating is derived from the Log Kill according to the following table: […]

[3] = total dose 272 mg/kg IV: 20 mg/kg day 3, 40 day 4, 106 mg/kg/injection QD days 5–6
[4] = total dose 920 mg/kg IV: 40 mg/kg day 3, 80 day 4, 160 mg/kg/injection QD days 5–9
[5] = total dose 1200 mg/kg IV: 80 mg/kg day 3, 160 day 4, 240 day 5, 120 mg/kg/injection BID days 7–9

O=C(NS(=O)(=O)c1ccccc1)c1ccc(Cl)cc1Cl [Example 110, N-[2,4-dichlorobenzoyl]phenylsulfonamide]
IC50 [1]: 3.5 µM
% BODY WT LOSS AT NADIR [2, 3]: +3.1%
% T/C MASS [2, 3]: 0%
ACTIVITY RATING [2, 3]: ++++ (HIGHLY ACTIVE >2.8)
DRUG DEATHS [2, 3]: 0/5
GROWTH DELAY (DAYS) [2, 3]: All cures
LOG KILL [2, 3]: >4.5
TUMOR FREE AT DAY 144 [2, 3]: 5/5
% BODY WT LOSS AT NADIR [2, 4]: +7.7%
% T/C MASS [2, 4]: 0%
ACTIVITY RATING [2, 4]: ++++ (HIGHLY ACTIVE >2.8)
DRUG DEATHS [2, 4]: 0/5
GROWTH DELAY (DAYS) [2, 4]: All cures
LOG KILL [2, 4]: >4.5
TUMOR FREE AT DAY 144 [2, 4]: 5/5
% BODY WT LOSS AT NADIR [2, 5]: −5.2%
% T/C MASS [2, 5]: 0%
ACTIVITY RATING [2, 5]: ++++ (HIGHLY ACTIVE >2.8)
GROWTH DELAY (DAYS) [2, 5]: All cures
LOG KILL [2, 5]: >4.5
TUMOR FREE AT DAY 144 [2, 5]: 6/6
